Data set [1] has as its target T1, serotonin 5-HT3A receptor (Homo sapiens, UniProt P46098).
T1 sequence (P46098 24-478): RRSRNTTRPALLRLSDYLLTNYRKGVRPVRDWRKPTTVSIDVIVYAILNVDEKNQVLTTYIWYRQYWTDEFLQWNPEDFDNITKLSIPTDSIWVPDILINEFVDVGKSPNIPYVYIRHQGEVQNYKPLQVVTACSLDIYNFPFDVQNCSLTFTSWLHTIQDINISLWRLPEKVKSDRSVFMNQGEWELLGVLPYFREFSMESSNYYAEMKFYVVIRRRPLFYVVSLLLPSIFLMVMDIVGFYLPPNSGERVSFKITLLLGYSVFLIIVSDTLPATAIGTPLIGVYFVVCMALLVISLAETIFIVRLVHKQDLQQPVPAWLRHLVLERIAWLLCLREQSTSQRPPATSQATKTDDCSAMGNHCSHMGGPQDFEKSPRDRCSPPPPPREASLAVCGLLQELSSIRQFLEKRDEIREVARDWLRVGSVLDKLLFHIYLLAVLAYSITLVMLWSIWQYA
As to the kind of experiment: Assay for 5-HT3A receptor: two-electrode voltage clamp of 5-HT-induced inward current in Xenopus oocytes expressing 5-HT3A receptor. Format: cell-based. To be noted: inhibition of inward current (I5-HT) induced by 5-HT (1 μM), Xenopus laevis oocytes, from concentration-response curves; for IC50: read-out: IC50 (50% inhibitory concentration); for inhibition: read-out: maximum inhibition value (Vmax). In general terms: Two-electrode voltage clamp is typically applied to oocytes expressing channels or transporters.

Turning to `Cc1cc(CNCCN2CCN(c3cccc(Cl)c3)CC2)[nH]n1` [Compound 2, 3-{2-[4-(3-Chlorophenyl)piperazin-1-yl]ethyl}aminomethyl-5-methylpyrazole], in data set [1], the “Hill coefficient (nH)” value is listed as 1.0 ± 0.1, the IC50 was 9.6 ± 1.1 µM and the inhibition was 90.6 ± 2.7%.

Regarding “1-t-Butyl-3-{2-[4-(4-chlorophenyl)piperazin-1-yl]ethyl}aminomethyl-5-propylpyrazole [Compound 4]”, in data set [1], the “Hill coefficient (nH)” value turned out to be 1.4 ± 0.3, the “maximum inhibition value (Vmax)” value turned out to be 97.3 ± 5.6 and the IC50 stood at 1.3 ± 0.3 µM.

With `Clc1ccc(N2CCN(CCNCc3cc(-c4ccco4)n(-c4ccccc4)n3)CC2)cc1` [Compound 8, 1-Phenyl-3-{2-[4-(4-chlorophenyl)piperazin-1-yl]ethyl}aminomethyl-5-(2-furyl)pyrazole], in data set [1], the “Hill coefficient (nH)” value is listed as 2.0 ± 0.2, the IC50 amounted to 4.3 ± 0.3 µM and the inhibition worked out at 97.3 ± 2%.

Regarding `CC(C)Cc1cc(CNCCN2CCN(c3ccc(Cl)cc3)CC2)nn1C(C)(C)C` [Compound 7, 1-t-Butyl-3-{2-[4-(4-chlorophenyl)piperazin-1-yl]ethyl}aminomethyl-5-isobutylpyrazole], the melting point lay within 133 to 134 °C. In data set [1], the “Hill coefficient (nH)” value was 1.4 ± 0.4, the IC50 came out at 3.3 ± 0.9 µM and the inhibition turned out to be 104 ± 3.5%.

Consider `Clc1ccc(N2CCN(CCNCc3cc(-c4ccccc4)n(-c4ccccc4)n3)CC2)cc1` [Compound 11, 1,5-Diphenyl-3-{2-[4-(4-chlorophenyl)piperazin-1-yl]ethyl}aminomethyl-5-pyrazole], for which, in data set [1], the “Hill coefficient (nH)” value is on record as 1.1 ± 0.1, the IC50 amounted to 3.1 ± 0.3 µM and the inhibition is 101 ± 2.6%.

Turning to `Cc1ccc(-c2cc(CNCCN3CCN(c4ccc(Cl)cc4)CC3)nn2-c2ccccc2)cc1` [Compound 12, 1,5-Diphenyl-3-{2-[4-(4-chlorophenyl)piperazin-1-yl]ethyl}aminomethyl-5-toluylpyrazole], in data set [1], the IC50 came out at 2.2 ± 0.2 µM and the inhibition stood at 95.5 ± 3.5%.

Take `Clc1ccc(N2CCN(CCNCc3cc(-c4ccc(N5CCCCC5)cc4)n(-c4ccccc4)n3)CC2)cc1` [Compound 10, 1-Phenyl-3-{2-[4-(4-chlorophenyl)piperazin-1-yl]ethyl}aminomethyl-5-4-(N-piperidyl)phenylpyrazole]: in data set [1], the “Hill coefficient (nH)” value was 1.9 ± 0.1, the IC50 worked out at 6.4 ± 0.3 µM and the inhibition was 95.9 ± 1.6%.

Turning to “1-Phenyl-3-{2-[4-(4-chlorophenyl)piperazin-1-yl]ethyl}aminomethyl-5-methylpyrazole [Compound 3]”, in data set [1], the “Hill coefficient (nH)” value was 1.4 ± 0.1, the “maximum inhibition value (Vmax)” value is listed as 98.5 ± 1.2 and the IC50 was found to be 2.5 ± 0.3 µM.

Take `CC(C)Cc1cc(CNCCN2CCN(c3ccc(Cl)cc3)CC2)nn1-c1ccccc1` [Compound 6, 1-Phenyl-3-{2-[4-(4-chlorophenyl)piperazin-1-yl]ethyl}aminomethyl-5-isobutylpyrazole]: in data set [1], the “Hill coefficient (nH)” value is 1.2 ± 0.1, the IC50 worked out at 2.8 ± 0.2 µM and the inhibition amounted to 103 ± 2.5%.

For `Clc1cccc(N2CCN(CCNCc3cc(-c4ccco4)n(-c4ccccc4)n3)CC2)c1` [Compound 1, 1-Phenyl-3-{2-[4-(3-chlorophenyl)piperazin-1-yl]ethyl}aminomethyl-5-(2-furyl)pyrazole], in data set [1], the “Hill coefficient (nH)” value is given as 1.5 ± 0.2, the IC50 was 9.4 ± 0.7 µM and the inhibition is 95.9 ± 2.8%.

Take `CCCc1cc(CNCCN2CCN(c3ccc(Cl)cc3)CC2)nn1-c1ccccc1` [Compound 5, 1-Phenyl-3-{2-[4-(4-chlorophenyl)piperazin-1-yl]ethyl}aminomethyl-5-propylpyrazole]: in data set [1], the “Hill coefficient (nH)” value is listed as 1.5 ± 0.3, the IC50 came to 1.3 ± 0.2 µM and the inhibition stood at 94.8 ± 4.8%.

For the compound `CN1[C@@H]2CC[C@H]1C[C@@H](OC(=O)c1cc(Cl)cc(Cl)c1)C2` [MDL72222, reference compound], in data set [1], the “Hill coefficient (nH)” value stood at 1.25 ± 0.27 and the inhibition came to 99.6 ± 7.7%.

For the compound `Cc1ccc(-c2cc(CNCCN3CCN(c4ccc(Cl)cc4)CC3)nn2C(C)(C)C)cc1` [Compound 9], in data set [1], the IC50 was 2.4 ± 0.4 µM and the inhibition is 103 ± 6.5%.

In the case of “1-Phenyl-3-{2-[4-(4-chlorobenzhydryl)piperazin-1-yl]ethyl}aminomethyl-5-toluylpyrazole [Compound 13]”, in data set [1], the “Hill coefficient (nH)” value stood at 2.2 ± 0.4, the “maximum inhibition value (Vmax)” value is listed as 73.1 ± 3.1 and the IC50 is 8.2 ± 0.8 µM.

Usually inhibition stands for the relative decrease from the control value, in per cent. In general, melting point refers to the temperature of the solid-liquid transition.

These data come from patent publication US20080312253A1, “Pharmaceutical compositions containing pyrazole derivatives for treating as serotonin antagonist” (KOREA INSTITUTE OF SCIENCE AND TECHNOLOGY, priority 2007, published 2008).
